Assay results taken from publication PMC12525728, “Safety, Pharmacokinetics, Translational and Molecular Mechanistic Insights on the Prostate Cancer Recurrence Suppressor Pseurotin A” (Molecules, 2025).

System: Swiss albino mice
Experiment: Hematological and biochemical evaluation after 90-day daily oral dosing
Format: in vivo
Settings: for HCT / HGB / MCHC / MCV / PLT / RBC-H / WBC-H: mean ± SD; for ALP, plasma / ALT, plasma / AST, plasma / BUN, plasma / CREAT (creatinine), plasma / GLU (glucose), plasma: mean ± SEM
Procedure: For the 90-day daily oral dosing sub-chronic toxicity study, twenty male and twenty female healthy 8-week-old Swiss albino mice were randomly selected and randomized to […] (n = 5/sex/group). Mice received free access to purified drinking water and high-fat diet (HFD) pelleted rodent chow (11.4% total fat, no. 7004, Envigo/Teklad, Madison, WI, USA) until the day before sacrifice, at which time they were fasted for 8 h and allowed only free access to drinking water. Daily doses of PsA (10, 40, 80 mg/kg body weight) were administered to the mice formulated in <5% DMSO (Mediatech Inc., Manassas, VA, USA) and <0.2% Tween 80 (Croda Inc., Princeton, NJ, USA) at a volume not exceeding 1% of body weight by metal oral gavage (2 mm diameter with stainless steel bite protector, 18-gauge, 3.81 cm long). […] The mice were observed weekly until the completion of the study. The body weights of the mice were measured in grams using a Scout^TM Pro (Ohaus Corp., Pine Brook, NJ, USA) on day 0, 4, 8, 11, 14, 21, 28, 35, 42, 49, 56, 63, 70, 77, 83, and 90 after initial treatment. On day 90, all mice were anesthetized using isoflurane (USP-vaporizer method, Matrix VIP-3000, Covetrus, Dublin, OH, USA, exposure of animals in an anesthesia chamber at 3% isoflurane vaporization rate. Exposure time 2 min). Mice were then euthanized by cervical dislocation according to the 2020 AVMA Guidelines on Euthanasia and dissected. Mice organs (brain, liver, kidney, heart, lungs, spleen) were excised and weighed for histopathological examination. The organs were stored in 10% neutral buffered formalin (Avantor Science Central, Allentown, PA, USA) for 24 h and then transferred to 70% ethanol (AAPER ALCOHOL, Shelbyville, KY, USA). This study was performed following the OECD guideline 408 for the testing of chemicals.
On the day of sacrifice, mice were decapitated, and the blood was quickly collected into a green-topped Lithium Heparin 400 µL blood collection tube (BD Microtainer REF# 365965) as well as a purple-topped K2 EDTA (K2E) 500 µL blood collection tube (BD Microtainer, Cat# 365974) to ensure all blood samples were collected free of clots. The Li Heparin samples were immediately centrifuged at 13,000× g for 10 min, and the plasma was transferred to 1.5 mL Eppendorf tubes free of Li heparin for biochemical analysis. Plasma samples were analyzed for AST, ALT, ALP, glucose, BUN, and creatinine levels using the Beckman AU680 clinical chemistry analyzer system (Beckman Coulter, Atlanta, GA, USA). The ETDA samples were analyzed for hematological parameters, and WBC, RBC, Hgb, Hct, MCV, MCHC, and PLT were determined using the Siemens Advia 120 hematology analyzer (Siemens Healthcare Diagnostics Inc., Tarrytown, NY, USA). All blood samples were analyzed at the LSU School of Veterinary Medicine Clinical Pathology Laboratory at Baton Rouge, Louisiana.
Results for the hematological and biochemical parameters were analyzed separately by One-way Analysis of Variance (ANOVA), followed by multiple comparisons with Dunnett’s test. All statistical analyses were performed using GraphPad Prism version 8 software (San Diego, CA, USA). Data in this study were expressed as a mean ± SD (standard deviation) and mean ± SEM (standard error of mean). A probability value of <0.05 was considered statistically significant (* p < 0.05; ** p < 0.01; and *** p < 0.001).

[1] = female, 10mg/kg daily oral 90 days
[2] = female, 40mg/kg daily oral 90 days
[3] = female, 80mg/kg daily oral 90 days
[4] = male and female treatment groups, 90 days
[5] = male, 10mg/kg daily oral 90 days
[6] = male, 40mg/kg daily oral 90 days
[7] = male, 80mg/kg daily oral 90 days

CC/C=C\[C@H](O)[C@H](O)C1=C(C)C(=O)[C@]2(O1)C(=O)N[C@@](OC)(C(=O)c1ccccc1)[C@@H]2O [PsA, pseurotin A]
AST level versus control (all male dosing groups, 90 days): significantly lower
AST level versus control (female treatment groups, 90 days): significant reduction
HCT [1]: 48.5 ± 6.0%
HGB [1]: 12.5 ± 0.3 g/dL
MCHC [1]: 26.2 ± 3.0 g/dL
MCV [1]: 52.1 ± 5.0 fL
PLT [1]: 459.0 ± 99.1 103/μL
RBC-H [1]: 9.3 ± 0.3 106/μL
WBC-H [1]: 6.5 ± 0.6 103/μL
ALP, plasma [1]: 78.0 ± 3.8 U/L
ALT, plasma [1]: 34.3 ± 1.9 U/L
AST, plasma [1]: 61.7 ± 6.4 U/L
BUN, plasma [1]: 22.0 ± 0.6 mg/dL
CREAT (creatinine), plasma [1]: 0.2 ± 0.0 mg/dL
GLU (glucose), plasma [1]: 291.7 ± 6.5 mg/dL
ALP, plasma [2]: 68.0 ± 3.8 U/L
ALT, plasma [2]: 34.5 ± 1.9 U/L
AST, plasma [2]: 67.8 ± 7.1 U/L
BUN, plasma [2]: 17.5 ± 0.4 mg/dL
CREAT (creatinine), plasma [2]: < 0.2 ± 0.0 mg/dL
GLU (glucose), plasma [2]: 259.0 ± 5.7 mg/dL
ALP, plasma [3]: 86.8 ± 13.4 U/L
ALT, plasma [3]: 30.3 ± 3.4 U/L
AST, plasma [3]: 81.3 ± 17.8 U/L
BUN, plasma [3]: 18.5 ± 2.1 mg/dL
CREAT (creatinine), plasma [3]: 0.2 ± 0.0 mg/dL
GLU (glucose), plasma [3]: 235.3 ± 19.4 mg/dL
plasma ALT level versus control (female, all three treatment groups, 90 days): significantly lower
BUN level versus control (male 10 mg/kg, female 40 mg/kg and female 80 mg/kg groups, 90 days): significantly lower
MCV versus control (male 40 mg/kg group, 90 days): significantly higher
ALP and plasma glucose levels [4]: no significant changes
CREAT levels [4]: no significant change
WBC-H, RBC-H, HGB, HCT, MCHC, PLT versus control (male up to 80 mg/kg, female 10 mg/kg, 90 days): did not show any significant changes
HCT [5]: 41.0 ± 3.0%
HGB [5]: 11.8 ± 0.4 g/dL
MCHC [5]: 28.8 ± 2.5 g/dL
MCV [5]: 49.6 ± 2.5 fL
PLT [5]: 555.0 ± 147.7 103/μL
RBC-H [5]: 8.3 ± 0.6 106/μL
WBC-H [5]: 4.5 ± 1.0 103/μL
ALP, plasma [5]: 71.8 ± 4.7 U/L
ALT, plasma [5]: 28.3 ± 1.7 U/L
AST, plasma [5]: 57.8 ± 12.8 U/L
BUN, plasma [5]: 18.3 ± 0.7 mg/dL
CREAT (creatinine), plasma [5]: 0.2 ± 0.0 mg/dL
GLU (glucose), plasma [5]: 263.8 ± 9.9 mg/dL
HCT [6]: 47.4 ± 4.3%
HGB [6]: 11.9 ± 0.9 g/dL
MCHC [6]: 25.1 ± 3.3 g/dL
MCV [6]: 55.4 ± 4.8 fL
PLT [6]: 413.0 ± 111.2 103/μL
RBC-H [6]: 8.6 ± 0.8 106/μL
WBC-H [6]: 5.0 ± 1.8 103/μL
ALP, plasma [6]: 78.3 ± 5.2 U/L
ALT, plasma [6]: 28.5 ± 2.5 U/L
AST, plasma [6]: 42.8 ± 1.9 U/L
BUN, plasma [6]: 20.5 ± 0.8 mg/dL
CREAT (creatinine), plasma [6]: 0.2 ± 0.0 mg/dL
GLU (glucose), plasma [6]: 248.5 ± 12.0 mg/dL
HCT [7]: 47.8 ± 4.9%
HGB [7]: 12.5 ± 0.3 g/dL
MCHC [7]: 26.3 ± 2.2 g/dL
MCV [7]: 53.3 ± 5.1 fL
PLT [7]: 580.3 ± 119.8 103/μL
RBC-H [7]: 9.0 ± 0.1 106/μL
WBC-H [7]: 7.9 ± 1.4 103/μL
ALP, plasma [7]: 63.0 ± 3.4 U/L
ALT, plasma [7]: 48.0 ± 4.8 U/L
AST, plasma [7]: 48.5 ± 4.50 U/L
BUN, plasma [7]: 20.3 ± 0.2 mg/dL
CREAT (creatinine), plasma [7]: 0.2 ± 0.0 mg/dL
GLU (glucose), plasma [7]: 272.3 ± 15.4 mg/dL
ALT level versus control (treated males, 90 days): did not show a significant change
